Values quoted from earlier work as cited in patent publication US12343320B2, “Intraveneous dofetilide to reduce the risk of developing AF/AFL post coronary bypass surgery” (Hyloris Developments SA, priority 2023, dated 2025).

How the values were obtained:
[1] = test system: QTc interval; conditions: average slope; Sedgwick et al 1991
[2] = IV dose of 1.5 μg/kg, restated rounded

peak level [2]: 1.7 ng/mL
Compound: CN(CCOc1ccc(NS(C)(=O)=O)cc1)CCc1ccc(NS(C)(=O)=O)cc1 [dofetilide, Dofetilide]
QTc change per dofetilide plasma concentration, average [1]: 20 ms
